Holding throughout (assay type): functional
A short description of assay [1]: Antifungal activity against Penicillium chrysogenum assessed as inhibition of spore germination at 12.5 ug/well after 48 hrs by agar well diffusion method.
In assay [2] the test system is Staphylococcus aureus. The assay can be described thus: Antibacterial activity against Staphylococcus aureus at 25 ug/well after 24 hrs by agar well diffusion method. As to conditions: read-out: DIZ. For orientation: A growth-free zone around the sample is the usual read-out of agar diffusion tests.
For assay [3], the system named is Staphylococcus aureus. The assay can be described thus: Antibacterial activity against Staphylococcus aureus at 50 ug/well after 24 hrs by agar well diffusion method. As to conditions: read-out: DIZ.
For assay [4], the system named is Aspergillus niger. Put plainly: Antifungal activity against Aspergillus niger assessed as inhibition of spore germination at 100 ug/well after 48 hrs by agar well diffusion method. As to conditions: read-out: DIZ.
Assay [5] can be described thus: Antifungal activity against Penicillium chrysogenum assessed as inhibition of spore germination at 25 ug/well after 48 hrs by agar well diffusion method.
Assay [6] deals with Aspergillus niger. Put plainly: Antifungal activity against Aspergillus niger assessed as inhibition of spore germination at 12.5 ug/well after 48 hrs by agar well diffusion method. As to conditions: read-out: DIZ.
Assay [7] can be described thus: Antifungal activity against Penicillium chrysogenum assessed as inhibition of spore germination at 50 ug/well after 48 hrs by agar well diffusion method.
In assay [8] the test system is Klebsiella pneumoniae. Put plainly: Antibacterial activity against Klebsiella pneumoniae at 50 ug/well after 24 hrs by agar well diffusion method. As to conditions: read-out: DIZ.
Assay [9] has as its system Bacillus subtilis. The assay can be described thus: Antibacterial activity against Bacillus subtilis at 25 ug/well after 24 hrs by agar well diffusion method. As to conditions: read-out: DIZ.
The test system of assay [10] is Aspergillus niger. Put plainly: Antifungal activity against Aspergillus niger assessed as inhibition of spore germination at 50 ug/well after 48 hrs by agar well diffusion method. As to conditions: read-out: DIZ.
The test system of assay [11] is Aspergillus niger. Put plainly: Antifungal activity against Aspergillus niger assessed as inhibition of spore germination at 25 ug/well after 48 hrs by agar well diffusion method. As to conditions: read-out: DIZ.
The test system of assay [12] is Klebsiella pneumoniae. Put plainly: Antibacterial activity against Klebsiella pneumoniae at 100 ug/well after 24 hrs by agar well diffusion method. As to conditions: read-out: DIZ.
For assay [13], the system named is Bacillus subtilis. Put plainly: Antibacterial activity against Bacillus subtilis at 12.5 ug/well after 24 hrs by agar well diffusion method. As to conditions: read-out: DIZ.
Assay [14] concerns Staphylococcus aureus. The assay can be described thus: Antibacterial activity against Staphylococcus aureus at 100 ug/well after 24 hrs by agar well diffusion method. As to conditions: read-out: DIZ.
The test system of assay [15] is Klebsiella pneumoniae. Put plainly: Antibacterial activity against Klebsiella pneumoniae at 25 ug/well after 24 hrs by agar well diffusion method. As to conditions: read-out: DIZ.
Assay [16] can be described thus: Antifungal activity against Penicillium chrysogenum assessed as inhibition of spore germination at 100 ug/well after 48 hrs by agar well diffusion method.
The test system of assay [17] is Pseudomonas aeruginosa. The assay can be described thus: Antibacterial activity against Pseudomonas aeruginosa at 100 ug/well after 24 hrs by agar well diffusion method. As to conditions: read-out: DIZ.
Assay [18] relates to Pseudomonas aeruginosa. The assay can be described thus: Antibacterial activity against Pseudomonas aeruginosa at 12.5 ug/well after 24 hrs by agar well diffusion method. As to conditions: read-out: DIZ.
The subject of assay [19] is Klebsiella pneumoniae. The assay can be described thus: Antibacterial activity against Klebsiella pneumoniae at 12.5 ug/well after 24 hrs by agar well diffusion method. As to conditions: read-out: DIZ.
In assay [20] the test system is Pseudomonas aeruginosa. The assay can be described thus: Antibacterial activity against Pseudomonas aeruginosa at 50 ug/well after 24 hrs by agar well diffusion method. As to conditions: read-out: DIZ.
Assay [21] deals with Bacillus subtilis. The assay can be described thus: Antibacterial activity against Bacillus subtilis at 50 ug/well after 24 hrs by agar well diffusion method. As to conditions: read-out: DIZ.
For assay [22], the system named is Bacillus subtilis. The assay can be described thus: Antibacterial activity against Bacillus subtilis at 100 ug/well after 24 hrs by agar well diffusion method. As to conditions: read-out: DIZ.
Assay [23] concerns Staphylococcus aureus. Put plainly: Antibacterial activity against Staphylococcus aureus at 12.5 ug/well after 24 hrs by agar well diffusion method. As to conditions: read-out: DIZ.
Assay [24] deals with Pseudomonas aeruginosa. Put plainly: Antibacterial activity against Pseudomonas aeruginosa at 25 ug/well after 24 hrs by agar well diffusion method. As to conditions: read-out: DIZ.

Regarding `Cc1ccc(-c2c[nH]cc2S(=O)(=O)Cc2nnc(N)s2)cc1`, the inhibition zone (IZ) in assay [1] worked out at 22 mm; in [5] it was 24 mm; in assay [7], 26 mm; in [16], 28 mm. The zone of inhibition at 25 µg/disc worked out at 17 mm with Staphylococcus aureus [2]; 19 mm in the assay on Bacillus subtilis [9]; 11 mm with Aspergillus niger [11]; 22 mm in the assay on Klebsiella pneumoniae [15]; 19 mm in the assay on Pseudomonas aeruginosa [24]. The zone of inhibition at 50 µg/disc with Staphylococcus aureus [3] is 19 mm; with Klebsiella pneumoniae [8], 24 mm; with Aspergillus niger [10], 13 mm; in the assay with Pseudomonas aeruginosa [20], 21 mm; in the assay on Bacillus subtilis [21] it was 20 mm. Moreover, the zone of inhibition at 100 µg/disc with Aspergillus niger [4] is 15 mm; in the assay on Klebsiella pneumoniae [12] it was 26 mm; with Staphylococcus aureus [14] it was 22 mm; in the assay on Pseudomonas aeruginosa [17], 23 mm; in the assay with Bacillus subtilis [22], 22 mm. Moreover, the zone of inhibition at 12.5 µg/disc was found to be 9 mm in the assay on Aspergillus niger [6]; 18 mm with Bacillus subtilis [13]; 17 mm in the assay on Pseudomonas aeruginosa [18]; 20 mm with Klebsiella pneumoniae [19]; 15 mm with Staphylococcus aureus [23].
As for `Cc1ccc(-c2c[nH]nc2S(=O)(=O)Cc2nnc(N)s2)cc1`, the inhibition zone (IZ) came to 28 mm in assay [1], 30 mm in [5], 32 mm in assay [7] and 34 mm in [16]. Also, the zone of inhibition at 25 µg/disc with Staphylococcus aureus [2] worked out at 17 mm; with Bacillus subtilis [9], 22 mm; in the assay with Aspergillus niger [11], 23 mm; in the assay with Klebsiella pneumoniae [15], 24 mm; in the assay on Pseudomonas aeruginosa [24], 22 mm. In addition, the zone of inhibition at 50 µg/disc with Staphylococcus aureus [3] amounted to 18 mm; with Klebsiella pneumoniae [8], 26 mm; in the assay on Aspergillus niger [10] it was 25 mm; in the assay on Pseudomonas aeruginosa [20] it was 24 mm; in the assay with Bacillus subtilis [21], 23 mm. Further, the zone of inhibition at 100 µg/disc in the assay with Aspergillus niger [4] amounted to 27 mm; in the assay with Klebsiella pneumoniae [12] it was 28 mm; in the assay on Staphylococcus aureus [14] it was 20 mm; with Pseudomonas aeruginosa [17] it was 26 mm; with Bacillus subtilis [22] it was 25 mm. Also, the zone of inhibition at 12.5 µg/disc was found to be 21 mm in the assay with Aspergillus niger [6]; 21 mm with Bacillus subtilis [13]; 20 mm with Pseudomonas aeruginosa [18]; 22 mm in the assay with Klebsiella pneumoniae [19]; 16 mm in the assay on Staphylococcus aureus [23].
For `Nc1nnc(CS(=O)(=O)/C=C\c2ccc(Cl)cc2)o1`, the inhibition zone (IZ) in assay [1] was determined as 15 mm; in assay [5] it was 16 mm; in [7], 18 mm; in [16], 20 mm. Further, the zone of inhibition at 25 µg/disc in the assay with Staphylococcus aureus [2] worked out at 14 mm; in the assay with Bacillus subtilis [9] it was 14 mm; with Aspergillus niger [11], 15 mm; in the assay with Klebsiella pneumoniae [15] it was 18 mm; in the assay with Pseudomonas aeruginosa [24] it was 17 mm. Further, the zone of inhibition at 50 µg/disc in the assay with Staphylococcus aureus [3] was 16 mm; with Klebsiella pneumoniae [8], 20 mm; in the assay with Aspergillus niger [10], 17 mm; in the assay with Pseudomonas aeruginosa [20], 19 mm; in the assay with Bacillus subtilis [21] it was 15 mm. Besides, the zone of inhibition at 100 µg/disc in the assay on Aspergillus niger [4] was 19 mm; in the assay on Klebsiella pneumoniae [12] it was 22 mm; in the assay on Staphylococcus aureus [14], 20 mm; with Pseudomonas aeruginosa [17], 21 mm; with Bacillus subtilis [22] it was 17 mm. Further, the zone of inhibition at 12.5 µg/disc turned out to be 13 mm in the assay with Aspergillus niger [6]; 13 mm in the assay on Bacillus subtilis [13]; 15 mm in the assay with Pseudomonas aeruginosa [18]; 16 mm with Klebsiella pneumoniae [19]; 12 mm in the assay on Staphylococcus aureus [23].
`Nc1nnc(CS(=O)(=O)/C=C\c2ccccc2)o1`: the inhibition zone (IZ) was 11 mm in assay [1], 13 mm in assay [5], 15 mm in assay [7] and 17 mm in [16]. Moreover, the zone of inhibition at 25 µg/disc came out at 13 mm in the assay with Staphylococcus aureus [2]; 13 mm in the assay on Bacillus subtilis [9]; 11 mm in the assay on Aspergillus niger [11]; 17 mm in the assay on Klebsiella pneumoniae [15]; 16 mm with Pseudomonas aeruginosa [24]. Besides, the zone of inhibition at 50 µg/disc in the assay on Staphylococcus aureus [3] was determined as 15 mm; with Klebsiella pneumoniae [8] it was 19 mm; in the assay with Aspergillus niger [10], 13 mm; in the assay with Pseudomonas aeruginosa [20], 18 mm; in the assay with Bacillus subtilis [21], 14 mm. Besides, the zone of inhibition at 100 µg/disc in the assay on Aspergillus niger [4] is 15 mm; with Klebsiella pneumoniae [12] it was 21 mm; in the assay with Staphylococcus aureus [14] it was 18 mm; with Pseudomonas aeruginosa [17] it was 20 mm; with Bacillus subtilis [22] it was 16 mm. Besides, the zone of inhibition at 12.5 µg/disc is 9 mm in the assay with Aspergillus niger [6]; 12 mm in the assay with Bacillus subtilis [13]; 14 mm in the assay on Pseudomonas aeruginosa [18]; 15 mm in the assay with Klebsiella pneumoniae [19]; 11 mm with Staphylococcus aureus [23].
With `Nc1nnc(CS(=O)(=O)/C=C\c2ccccc2)s1`, the inhibition zone (IZ) in assay [1] was 29 mm; in [5], 34 mm; in assay [7] it was 36 mm; in assay [16], 35 mm. Also, the zone of inhibition at 25 µg/disc in the assay on Staphylococcus aureus [2] is 22 mm; with Bacillus subtilis [9], 28 mm; in the assay on Aspergillus niger [11] it was 27 mm; with Klebsiella pneumoniae [15] it was 29 mm; in the assay with Pseudomonas aeruginosa [24], 25 mm. Further, the zone of inhibition at 50 µg/disc with Staphylococcus aureus [3] stood at 23 mm; with Klebsiella pneumoniae [8], 31 mm; in the assay on Aspergillus niger [10], 29 mm; with Pseudomonas aeruginosa [20], 27 mm; in the assay on Bacillus subtilis [21], 29 mm. Further, the zone of inhibition at 100 µg/disc with Aspergillus niger [4] amounted to 31 mm; with Klebsiella pneumoniae [12], 33 mm; with Staphylococcus aureus [14] it was 25 mm; in the assay on Pseudomonas aeruginosa [17] it was 29 mm; in the assay on Bacillus subtilis [22], 31 mm. The zone of inhibition at 12.5 µg/disc in the assay on Aspergillus niger [6] worked out at 25 mm; in the assay with Bacillus subtilis [13] it was 27 mm; with Pseudomonas aeruginosa [18], 23 mm; with Klebsiella pneumoniae [19], 27 mm; with Staphylococcus aureus [23], 21 mm.
Regarding `Cc1ccc(/C=C\S(=O)(=O)Cc2nnc(N)s2)cc1`, the inhibition zone (IZ) in assay [1] came to 25 mm; in assay [5] it was 27 mm; in [7] it was 29 mm; in assay [16] it was 31 mm. The zone of inhibition at 25 µg/disc in the assay on Staphylococcus aureus [2] was determined as 20 mm; in the assay on Bacillus subtilis [9], 26 mm; in the assay with Aspergillus niger [11], 24 mm; with Klebsiella pneumoniae [15] it was 25 mm; in the assay with Pseudomonas aeruginosa [24], 23 mm. Moreover, the zone of inhibition at 50 µg/disc in the assay with Staphylococcus aureus [3] is 21 mm; with Klebsiella pneumoniae [8], 27 mm; in the assay with Aspergillus niger [10], 26 mm; in the assay with Pseudomonas aeruginosa [20], 25 mm; with Bacillus subtilis [21], 27 mm. In addition, the zone of inhibition at 100 µg/disc with Aspergillus niger [4] was determined as 28 mm; with Klebsiella pneumoniae [12], 29 mm; in the assay with Staphylococcus aureus [14], 23 mm; in the assay on Pseudomonas aeruginosa [17], 27 mm; in the assay on Bacillus subtilis [22], 29 mm. The zone of inhibition at 12.5 µg/disc in the assay on Aspergillus niger [6] stood at 22 mm; with Bacillus subtilis [13] it was 25 mm; in the assay with Pseudomonas aeruginosa [18] it was 21 mm; in the assay on Klebsiella pneumoniae [19], 23 mm; with Staphylococcus aureus [23], 19 mm.

The values above are taken from ChEMBL document CHEMBL3867433, “Synthesis and antimicrobial activity of styryl/pyrrolyl/pyrazolyl sulfonylmethyl-1,3,4-oxadiazolyl amines and styryl/pyrrolyl/pyrazolyl sulfonylmethyl-1,3,4-thiadiazolyl amines” (2016).
